Structures can show the parent of a compound that is named as a salt.
Experiment: aqueous solubility at 25°C
Format: physicochemical
Conditions: water

solubility (room temperature (25°C)) | Compound | other results
~25 mg/mL | CC(CCc1ccc(O)cc1)NCCc1ccc(O)c(O)c1 (racemic) [Dobutamine phosphate dibasic, dobutamine phosphate dibasic] | 
 | CC(CCc1ccc(O)cc1)NCCc1ccc(O)c(O)c1 (racemic) [dobutamine phosphate monobasic] | solubility (at 25°C): ~2000 mg/mL
 | CC(CCc1ccc(O)cc1)NCCc1ccc(O)c(O)c1 (stereo not shown) [dobutamine hydrobromide] | aqueous solubility (room temperature (25°C), hydrobromide): about 28 mg per ml of water
28 mg/mL | CC(CCc1ccc(O)cc1)NCCc1ccc(O)c(O)c1 (stereo not shown) [dobutamine hydrochloride] | 
